Data published in patent US20160251341A1, “SUBSTITUTED TRIAZOLE COMPOUNDS AS SERINE PROTEASE INHIBITORS” (Verseon Corporation, priority 2015, published 2016).
Structures can show the parent of a compound that is named as a salt.

Molecular target: T1, Human thrombin (Homo sapiens, UniProt P00734)
T1 construct: purchased Haematologic Technologies Inc
Test: Thrombin protease inhibition assay (chromogenic substrate S-2238)
Type: biochemical
Conditions: 3 nM human thrombin, 125 μM S-2238, 10 min pre-incubation, RT
Method: The thrombin activity reported herein (e.g., Table A) was obtained as follows. Human thrombin was obtained from Haematologic Technologies Inc. The chromogenic substrate S-2238 was obtained from DiaPharma. Thrombin was assayed in buffer containing 0.05 M Tris (pH 7.4), 0.015 M NaCl and 0.01% PEG-8000. The final concentration of enzyme used was 3 nM thrombin. The final concentration of substrate used was 125 μM S-2238 for thrombin. All assays were performed in 96-well microtiter plates at room temperature (RT). The enzyme and inhibitor were pre-incubated for 10 minutes then substrate was added and read at 405 nm in a SpectraMax Plus Spectrophotometer (Molecular Devices). Inhibitor IC50 values were determined by adding test compound as ten point, three-fold serial dilutions in buffer solution, as known in the art. The plate was read at 10 minutes after substrate addition. The IC50 was calculated by plotting the percent (%) inhibition against compound concentration and fitting the data to a constrained four parameter sigmoidal curve, as known in the art.

Structure (SMILES)	IC50 [nM]
O=C(c1ccccc1)n1nc(C2CCNCC2)nc1NCc1ccc(Cl)s1 [Entry 15, 1-benzoyl-N-[(5-chlorothiophen-2-yl)methyl]-3-(piperidin-4-yl)-1H-1,2,4-triazol-5-amine hydrochloride]	≤ 100
O=C(c1ccccc1)n1nc(C2CNC2)nc1NCc1ccc(Cl)s1 [Entry 20, 3-(azetidin-3-yl)-1-benzoyl-N-[(5-chlorothiophen-2-yl)methyl]-1H-1,2,4-triazol-5-amine]	≥ 100000
O=C(c1cccc2c1OCCO2)n1nc(C2CNC2)nc1NCc1ccc(Cl)s1 [Entry 21, 3-(azetidin-3-yl)-N-[(5-chlorothiophen-2-yl)methyl]-1-(2,3-dihydro-1,4-benzodioxine-5-carbonyl)-1H-1,2,4-triazol-5-amine; trifluoroacetic acid]	≤ 100
O=C(C1CCCCC1)n1nc(C2CNC2)nc1NCc1ccc(Cl)s1 [Entry 22, 3-(azetidin-3-yl)-N-[(5-chlorothiophen-2-yl)methyl]-1-cyclohexanecarbonyl-1H-1,2,4-triazol-5-amine; trifluoroacetic acid]	100 to 1000
O=C(C1CCCC1)n1nc(C2CNC2)nc1NCc1ccc(Cl)s1 [Entry 23, 3-(azetidin-3-yl)-N-[(5-chlorothiophen-2-yl)methyl]-1-cyclopentanecarbonyl-1H-1,2,4-triazol-5-amine]	≥ 100000
Nc1nc(C2CCOCC2)n[nH]1 [Entry 24, 3-(oxan-4-yl)-1H-1,2,4-triazol-5-amine]	≥ 100000
Nc1nc(C2CCCO2)n[nH]1 (stereo not drawn) [Entry 25, 3-(oxolan-2-yl)-1H-1,2,4-triazol-5-amine]	≥ 100000
Nc1nc(C2CCOC2)n[nH]1 (stereo not drawn) [Entry 26, 3-(oxolan-3-yl)-1H-1,2,4-triazol-5-amine]	≥ 100000
COc1ccccc1C(=O)n1nc(C2CN(S(=O)(=O)c3ccccc3)C2)nc1NCc1ccc(Cl)s1 [Entry 27, 3-[1-(benzenesulfonyl)azetidin-3-yl]-N-[(5-chlorothiophen-2-yl)methyl]-1-(2-methoxybenzoyl)-1H-1,2,4-triazol-5-amine]	≤ 100
COc1ccccc1C(=O)n1nc(C2CCN(S(=O)(=O)c3ccccc3)CC2)nc1NCc1ccc(Cl)s1 [Entry 28, 3-[1-(benzenesulfonyl)piperidin-4-yl]-N-[(5-chlorothiophen-2-yl)methyl]-1-(2-methoxybenzoyl)-1H-1,2,4-triazol-5-amine]	≤ 100
Nc1nc(C2=C(OCc3ccc(Cl)s3)CCCC2)n[nH]1 [Entry 29, 3-2-[(5-chlorothiophen-2-yl)methoxy]cyclohex-1-en-1-yl-1H-1,2,4-triazol-5-amine]	≥ 100000
COc1ccccc1C(=O)n1nc(C2CCN(C(=O)N(C)C)CC2)nc1NCc1ccc(Cl)s1 [Entry 30, 4-(5-[(5-chlorothiophen-2-yl)methyl]amino-1-(2-methoxybenzoyl)-1H-1,2,4-triazol-3-yl)-N,N-dimethylpiperidine-1-carboxamide]	≤ 100
COc1ccccc1C(=O)n1nc(C2CCN(C(N)=O)CC2)nc1NCc1ccc(Cl)s1 [Entry 31, 4-(5-[(5-chlorothiophen-2-yl)methyl]amino-1-(2-methoxybenzoyl)-1H-1,2,4-triazol-3-yl)piperidine-1-carboxamide]	≤ 100
O=C(c1cccc2c1OCCO2)n1nc(C2CCCO2)nc1NCc1ccc(Cl)s1 (stereo not drawn) [Entry 33, N-[(5-chlorothiophen-2-yl)methyl]-1-(2,3-dihydro-1,4-benzodioxine-5-carbonyl)-3-(oxolan-2-yl)-1H-1,2,4-triazol-5-amine]	≤ 100
COc1ccc(C(=O)n2nc(C3CCOCC3)nc2NCc2ccc(Cl)s2)c(OC)c1 [Entry 36, N-[(5-chlorothiophen-2-yl)methyl]-1-(2,4-dimethoxybenzoyl)-3-(oxan-4-yl)-1H-1,2,4-triazol-5-amine]	≤ 100
COc1ccc(C(=O)n2nc(C3CCOC3)nc2NCc2ccc(Cl)s2)c(OC)c1 (stereo not drawn) [Entry 38, N-[(5-chlorothiophen-2-yl)methyl]-1-(2,4-dimethoxybenzoyl)-3-(oxolan-3-yl)-1H-1,2,4-triazol-5-amine]	≤ 100
COc1ccccc1C(=O)n1nc(C2CCCO2)nc1NCc1ccc(Cl)s1 (stereo not drawn) [Entry 41, N-[(5-chlorothiophen-2-yl)methyl]-1-(2-methoxybenzoyl)-3-(oxolan-2-yl)-1H-1,2,4-triazol-5-amine]	≤ 100
COc1ccccc1C(=O)n1nc(C2CCOC2)nc1NCc1ccc(Cl)s1 (stereo not drawn) [Entry 42, N-[(5-chlorothiophen-2-yl)methyl]-1-(2-methoxybenzoyl)-3-(oxolan-3-yl)-1H-1,2,4-triazol-5-amine]	≤ 100
COc1ccccc1C(=O)n1nc(C2CN(S(=O)(=O)C(C)C)C2)nc1NCc1ccc(Cl)s1 [Entry 46, N-[(5-chlorothiophen-2-yl)methyl]-1-(2-methoxybenzoyl)-3-[1-(propane-2-sulfonyl)azetidin-3-yl]-1H-1,2,4-triazol-5-amine]	≤ 100
COc1ccccc1C(=O)n1nc(C2CCN(C(=O)N3CCCC3)CC2)nc1NCc1ccc(Cl)s1 [Entry 48, N-[(5-chlorothiophen-2-yl)methyl]-1-(2-methoxybenzoyl)-3-[1-(pyrrolidine-1-carbonyl)piperidin-4-yl]-1H-1,2,4-triazol-5-amine]	≤ 100
COc1ccccc1C(=O)n1nc(C2CN(S(=O)(=O)N3CCCC3)C2)nc1NCc1ccc(Cl)s1 [Entry 49, N-[(5-chlorothiophen-2-yl)methyl]-1-(2-methoxybenzoyl)-3-[1-(pyrrolidine-1-sulfonyl)azetidin-3-yl]-1H-1,2,4-triazol-5-amine]	≤ 100

The remaining lines, values ahead:

IC50 [nM]	Structure (SMILES)
≥ 100000	COc1ccccc1C(=O)n1nc(C2=C(O)CCCC2)nc1NCc1ccccc1 [Entry 16, 2-[5-(benzylamino)-1-(2-methoxybenzoyl)-1H-1,2,4-triazol-3-yl]cyclohex-1-en-1-ol]
≥ 100000	OC1=C(c2n[nH]c(NCc3ccccc3)n2)CCCC1 [Entry 17, 2-[5-(benzylamino)-1H-1,2,4-triazol-3-yl]cyclohex-1-en-1-ol]
≥ 100000	COC1CCCCC1c1n[nH]c(N)n1 (stereo not drawn) [Entry 18, 3-(2-methoxycyclohexyl)-1H-1,2,4-triazol-5-amine]
≤ 100	COc1ccccc1C(=O)n1nc(C2CN(S(=O)(=O)N(C)C)C2)nc1NCc1ccc(Cl)s1 [Entry 19, 3-(5-[(5-chlorothiophen-2-yl)methyl]amino-1-(2-methoxybenzoyl)-1H-1,2,4-triazol-3-yl)-N,N-dimethylazetidine-1-sulfonamide]
≤ 100	O=C(c1cccc2c1OCCO2)n1nc(C2CCOCC2)nc1NCc1ccc(Cl)s1 [Entry 32, N-[(5-chlorothiophen-2-yl)methyl]-1-(2,3-dihydro-1,4-benzodioxine-5-carbonyl)-3-(oxan-4-yl)-1H-1,2,4-triazol-5-amine]
≤ 100	O=C(c1cccc2c1OCCO2)n1nc(C2CCOC2)nc1NCc1ccc(Cl)s1 (stereo not drawn) [Entry 34, N-[(5-chlorothiophen-2-yl)methyl]-1-(2,3-dihydro-1,4-benzodioxine-5-carbonyl)-3-(oxolan-3-yl)-1H-1,2,4-triazol-5-amine]
≤ 100	O=C(c1cccc2c1OCCO2)n1nc(C2CCNCC2)nc1NCc1ccc(Cl)s1 [Entry 35, N-[(5-chlorothiophen-2-yl)methyl]-1-(2,3-dihydro-1,4-benzodioxine-5-carbonyl)-3-(piperidin-4-yl)-1H-1,2,4-triazol-5-amine hydrochloride]
≤ 100	COc1ccc(C(=O)n2nc(C3CCCO3)nc2NCc2ccc(Cl)s2)c(OC)c1 (stereo not drawn) [Entry 37, N-[(5-chlorothiophen-2-yl)methyl]-1-(2,4-dimethoxybenzoyl)-3-(oxolan-2-yl)-1H-1,2,4-triazol-5-amine]
≤ 100	COc1ccccc1C(=O)n1nc(C2CCCCC2OC)nc1NCc1ccc(Cl)s1 (stereo not drawn) [Entry 39, N-[(5-chlorothiophen-2-yl)methyl]-1-(2-methoxybenzoyl)-3-(2-methoxycyclohexyl)-1H-1,2,4-triazol-5-amine]
≤ 100	COc1ccccc1C(=O)n1nc(C2CCOCC2)nc1NCc1ccc(Cl)s1 [Entry 40, N-[(5-chlorothiophen-2-yl)methyl]-1-(2-methoxybenzoyl)-3-(oxan-4-yl)-1H-1,2,4-triazol-5-amine]
≤ 100	COc1ccccc1C(=O)n1nc(C2CCNCC2)nc1NCc1ccc(Cl)s1 [Entry 43, N-[(5-chlorothiophen-2-yl)methyl]-1-(2-methoxybenzoyl)-3-(piperidin-4-yl)-1H-1,2,4-triazol-5-amine]
≤ 100	COc1ccccc1C(=O)n1nc(C2CCN(C(=O)N3CCCCC3)CC2)nc1NCc1ccc(Cl)s1 [Entry 44, N-[(5-chlorothiophen-2-yl)methyl]-1-(2-methoxybenzoyl)-3-[1-(piperidine-1-carbonyl)piperidin-4-yl]-1H-1,2,4-triazol-5-amine]
≤ 100	COc1ccccc1C(=O)n1nc(C2CN(S(=O)(=O)N3CCCCC3)C2)nc1NCc1ccc(Cl)s1 [Entry 45, N-[(5-chlorothiophen-2-yl)methyl]-1-(2-methoxybenzoyl)-3-[1-(piperidine-1-sulfonyl)azetidin-3-yl]-1H-1,2,4-triazol-5-amine]
≤ 100	COc1ccccc1C(=O)n1nc(C2CCN(S(=O)(=O)C(C)C)CC2)nc1NCc1ccc(Cl)s1 [Entry 47, N-[(5-chlorothiophen-2-yl)methyl]-1-(2-methoxybenzoyl)-3-[1-(propane-2-sulfonyl)piperidin-4-yl]-1H-1,2,4-triazol-5-amine]
≤ 100	Cc1ccccc1C(=O)n1nc(C2CCOCC2)nc1NCc1ccc(Cl)s1 [Entry 50, N-[(5-chlorothiophen-2-yl)methyl]-1-(2-methylbenzoyl)-3-(oxan-4-yl)-1H-1,2,4-triazol-5-amine]
